For 14 compounds, EC50 results are on record in patent publication US9499550B2 (BRISTOL-MYERS SQUIBB COMPANY, priority 2012, dated 2016).

Read-outs that look alike come from different tables or passages of the source.

A word on the EC50: it is the concentration giving half of the maximal effect.

Assay [1] relates to HCV genotype 1a (H77 strain) replicon in HUH-7 cells. As to the kind of experiment: HCV replicon luciferase reporter assay, genotype 1a. Conditions: Hepatitis C virus, Huh-7, 72 h, HCV genotype 1a replicon luciferase, 3 days incubation. In kind it is cell-based. Summed up:
(§1)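 Replicon inhibition for both genotypes was measured as Renilla luciferase signal (EnduRen, 7.5 μM final, 2 h) after 3-day, 37° C exposure of replicon-bearing HUH-7 cells in 4% FCS DMEM, 0.5% DMSO. The 1b construct carries S1179I; the 1a H77 construct carries P1496L and S2204I. Twenty-point, 3-fold dilutions were fitted four-parametrically for EC50, and CC50 was taken from multiplexed Cell Titer-Blue.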

Assay [2] has as its system HCV genotype 1b (Con1) replicon in HUH-7 cells. Nature of the assay: HCV replicon luciferase reporter assay, genotype 1b. In kind it is cell-based. Conditions: Hepatitis C virus, Huh-7, 72 h, HCV genotype 1b replicon luciferase, 3 days incubation. An outline of the steps:
as §1
(In antiviral work, replicon cells carry a viral genome segment that copies itself.)

The mark [3] stands for this setting: GETYPE1A, read-out: LE_1a (EC50, range).
[4] abbreviates: GETYPE1B, read-out: LE_1b (EC50, range).
Where [5] appears, read: GETYPE1A, read-out: LE_1a (EC50).
Where [6] appears, read: GETYPE1B, read-out: LE_1b (EC50).

`CC[C@@H]1C[C@H](C)CC/C=C\[C@@H]2C[C@@]2(C(=O)NS(=O)(=O)C2(C)CC2)NC(=O)[C@@H]2C[C@@H](Oc3ncc(OC)c4ccc(F)cc34)CN2C(=O)[C@H]1NC(=O)N1CCS(=O)(=O)CC1` [Compound 4283, N-((2R,6S,7R,9R,13aS,14aR,16aS,Z)-7-ethyl-2-((7-fluoro-4-methoxyisoquinolin-1-yl)oxy)-9-methyl-14a-(((1-methylcyclopropyl)sulfonyl)carbamoyl)-5,16-dioxo-1,2,3,5,6,7,8,9,10,11,13a,14,14a,15,16,16a-hexadecahydrocyclopropa[e]pyrrolo[1,2-a][1,4]diazacyclopentadecin-6-yl)thiomorpholine-4-carboxamide 1,1-dioxide]: the EC50 in assay [1] (read-out: LE_1a (EC50, range)) is 5.01 to 35 nM; in assay [2] (read-out: LE_1b (EC50, range)), 1.01 to 5 nM.

In the case of `CC[C@@H]1C[C@H](C)CC/C=C\[C@@H]2C[C@@]2(C(=O)NS(=O)(=O)C2(C)CC2)NC(=O)[C@@H]2C[C@@H](Oc3ncc(OC)c4ccc(F)cc34)CN2C(=O)[C@H]1NC(=O)N1CCOCC1` [Compound 4284, N-((2R,6S,7R,9R,13aS,14aR,16aS,Z)-7-ethyl-2-((7-fluoro-4-methoxyisoquinolin-1-yl)oxy)-9-methyl-14a-(((1-methylcyclopropyl)sulfonyl)carbamoyl)-5,16-dioxo-1,2,3,5,6,7,8,9,10,11,13a,14,14a,15,16,16a-hexadecahydrocyclopropa[e]pyrrolo[1,2-a][1,4]diazacyclopentadecin-6-yl)morpholine-4-carboxamide], the EC50 in assay [1] (read-out: LE_1a (EC50)) is 0.73 nM; in assay [1] (read-out: LE_1a (EC50, range)), 0.51 to 1 nM; in assay [2] (read-out: LE_1b (EC50)), 0.42 nM; in assay [2] (read-out: LE_1b (EC50, range)), 0.1 to 0.5 nM.

On to `COc1cc2nc(O[C@@H]3C[C@H]4C(=O)N[C@]5(C(=O)NS(=O)(=O)C6(C)CC6)C[C@H]5/C=C\CC[C@H](C)C[C@@H](C)[C@H](NC(=O)OC(C)(C)C(F)(F)F)C(=O)N4C3)c(C(F)(F)F)nc2cc1F` [Compound 4289], for which the EC50 fell in the range of 5.01 to 35 nM in assay [1] (setting [3]) and 1.01 to 5 nM in assay [2] (setting [4]).

For `COc1cc2nc(O[C@@H]3C[C@H]4C(=O)N[C@]5(C(=O)NS(=O)(=O)C6(C)CC6)C[C@H]5/C=C\CC[C@@H](C)C[C@@H](C)[C@H](NC(=O)OC(C)(C)C(F)(F)F)C(=O)N4C3)c(C(F)(F)F)nc2cc1F` [Compound 4290], the EC50 in assay [1] (setting [3]) fell in the range of 1.01 to 5 nM; in assay [2] (setting [4]) it was 0.51 to 1 nM.

In the case of `CCOc1ccc2nc(Cl)c(O[C@@H]3C[C@H]4C(=O)N[C@]5(C(=O)NS(=O)(=O)C6(CF)CC6)C[C@H]5/C=C\CC[C@@H](C)C[C@@H](C)[C@H](NC(=O)OC(C)(C)C(F)(F)F)C(=O)N4C3)c(Cl)c2c1` [Compound 4292], the EC50 in assay [1] (setting [3]) and in assay [2] (setting [4]) was 5.01 to 35 nM throughout.

As for `CCOc1ccc2ncc(O[C@@H]3C[C@H]4C(=O)N[C@]5(C(=O)NS(=O)(=O)C6(CF)CC6)C[C@H]5/C=C\CC[C@@H](C)C[C@@H](C)[C@H](NC(=O)OC(C)(C)C(F)(F)F)C(=O)N4C3)cc2c1` [Compound 4296], the EC50 in assay [1] (setting [5]) is 11.9 nM; in assay [1] (setting [3]), 5.01 to 35 nM; in assay [2] (setting [6]), 5.46 nM; in assay [2] (setting [4]), 5.01 to 35 nM.

Turning to `CC[C@@H]1C[C@H](C)CC/C=C\[C@@H]2C[C@@]2(C(=O)NS(=O)(=O)C2(C)CC2)NC(=O)[C@@H]2C[C@@H](Oc3cc(Cl)c4ccc(OC)cc4n3)CN2C(=O)[C@H]1NC(=O)OC(C)(C)C(F)(F)F` [Compound 4298], the EC50 in assay [1] (setting [3]) and in assay [2] (setting [4]) was 1.01 to 5 nM in each case.

As for `COc1ccc2c(Cl)cc(O[C@@H]3C[C@H]4C(=O)N[C@]5(C(=O)NS(=O)(=O)C6(C)CC6)C[C@H]5/C=C\CC[C@@H](C)C[C@@H](C)[C@H](NC(=O)OC(C)(C)C)C(=O)N4C3)nc2c1` [Compound 4300, tert-butyl ((2R,6S,7R,9R,13aS,14aR,16aS,Z)-2-((4-chloro-7-methoxyquinolin-2-yl)oxy)-7,9-dimethyl-14a-(((1-methylcyclopropyl)sulfonyl)carbamoyl)-5,16-dioxo-1,2,3,5,6,7,8,9,10,11,13a,14,14a,15,16,16a-hexadecahydrocyclopropa[e]pyrrolo[1,2-a][1,4]diazacyclopentadecin-6-yl)carbamate], the EC50 fell in the range of 0.51 to 1 nM in assay [1] (read-out: LE_1a (EC50, range)) and 0.51 to 1 nM in assay [2] (read-out: LE_1b (EC50, range)).

As to `COc1ccc2c(Cl)cc(O[C@@H]3C[C@H]4C(=O)N[C@]5(C(=O)NS(=O)(=O)C6(C)CC6)C[C@H]5/C=C\CC[C@@H](C)C[C@@H](C)[C@H](NC(=O)OC(C)(C)C(F)(F)F)C(=O)N4C3)nc2c1` [Compound 4302], the concentration giving a half-maximal response (EC50) in assay [1] (setting [3]) and in assay [2] (setting [4]) was 1.01 to 5 nM throughout.

Regarding `CC[C@@H]1C[C@H](C)CC/C=C\[C@@H]2C[C@@]2(C(=O)NS(=O)(=O)C2CC2)NC(=O)[C@@H]2C[C@@H](Oc3nc4ccc(OC)cc4nc3N(C)C)CN2C(=O)[C@H]1NC(=O)OC(C)(C)C` [Compound 4304, tert-butyl ((2R,6S,7R,9R,13aS,14aR,16aS,Z)-14a-((cyclopropylsulfonyl)carbamoyl)-2-((3-(dimethylamino)-6-methoxyquinoxalin-2-yl)oxy)-7-ethyl-9-methyl-5,16-dioxo-1,2,3,5,6,7,8,9,10,11,13a,14,14a,15,16,16a-hexadecahydrocyclopropa[e]pyrrolo[1,2-a][1,4]diazacyclopentadecin-6-yl)carbamate], the EC50 fell in the range of 35 to 620 nM in assay [1] (read-out: LE_1a (EC50, range)) and 5.01 to 35 nM in assay [2] (read-out: LE_1b (EC50, range)).

With `CC[C@@H]1C[C@H](C)CC/C=C\[C@@H]2C[C@@]2(C(=O)NS(=O)(=O)C2CC2)NC(=O)[C@@H]2C[C@@H](Oc3nc4ccc(OC)cc4nc3N(C)C)CN2C(=O)C1NC(=O)OC(C)(C)C(F)(F)F` (stereo partly shown) [Compound 4305], the half-maximal effective concentration (EC50) in assay [1] (setting [3]) lay in the range of 35 to 620 nM; in assay [2] (setting [4]), 5.01 to 35 nM.

On to `COc1cnc2ccc(O[C@@H]3C[C@H]4C(=O)N[C@]5(C(=O)NS(=O)(=O)C6(C)CC6)C[C@H]5/C=C\CC[C@@H](C)C[C@@H](C)[C@H](NC(=O)OC(C)(C)C)C(=O)N4C3)cc2n1` [Compound 4310, tert-butyl ((2R,6S,7R,9R,13aS,14aR,16aS,Z)-2-((3-methoxyquinoxalin-6-yl)oxy)-7,9-dimethyl-14a-(((1-methylcyclopropyl)sulfonyl)carbamoyl)-5,16-dioxo-1,2,3,5,6,7,8,9,10,11,13a,14,14a,15,16,16a-hexadecahydrocyclopropa[e]pyrrolo[1,2-a][1,4]diazacyclopentadecin-6-yl)carbamate], for which the EC50 in assay [1] (read-out: LE_1a (EC50, range)) was in the range of 0.51 to 1 nM; in assay [2] (read-out: LE_1b (EC50, range)) it was 1.01 to 5 nM.

As for `CCOc1ccc2ncc(O[C@@H]3C[C@H]4C(=O)N[C@]5(C(=O)NS(=O)(=O)C6(C)CC6)C[C@H]5/C=C\CC[C@@H](C)C[C@@H](C)[C@H](NC(=O)OC(C)(C)C)C(=O)N4C3)cc2c1` [Compound 4311, tert-butyl ((2R,6S,7R,9R,13aS,14aR,16aS,Z)-2-((6-ethoxyquinolin-3-yl)oxy)-7,9-dimethyl-14a-(((1-methylcyclopropyl)sulfonyl)carbamoyl)-5,16-dioxo-1,2,3,5,6,7,8,9,10,11,13a,14,14a,15,16,16a-hexadecahydrocyclopropa[e]pyrrolo[1,2-a][1,4]diazacyclopentadecin-6-yl)carbamate], the concentration for a half-maximal effect (EC50) in assay [1] (read-out: LE_1a (EC50, range)) lay within 1.01 to 5 nM; in assay [2] (read-out: LE_1b (EC50, range)) it was 1.01 to 5 nM.

On to `CCOc1ccc2nc(Cl)c(O[C@@H]3C[C@H]4C(=O)N[C@]5(C(=O)NS(=O)(=O)C6(C)CC6)C[C@H]5/C=C\CC[C@@H](C)C[C@@H](C)[C@H](NC(=O)OC(C)(C)C(F)(F)F)C(=O)N4C3)c(Cl)c2c1` [Compound 4312], for which the 50% effective concentration (EC50) in assay [1] (setting [5]) is 20.9 nM; in assay [1] (setting [3]) it was 5.01 to 35 nM; in assay [2] (setting [6]), 12.2 nM; in assay [2] (setting [4]), 5.01 to 35 nM.
